Measurements reported in patent US5304540A, “Pharmaceutical bacteriocin compositions and methods for using the same” (Applied Microbiology, Inc., priority 1993, dated 1994).
Read-outs that look alike come from different tables or passages of the source.

How the values were obtained:
Escherichia coli = test: Germicidal suspension assay, E. coli; assay type: cell-based; conditions: for % survival at 1 min: 37° C., nisin 100 μg/ml and/or EDTA 1.0 mM where present;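 for all read-outs here: surviving cells were scored as colonies on nutrient agar after 24 h at 37° C, survival given as percent of untreated controls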
Experimental: E. coli cells from an overnight Trypticase soy nutrient agar (TSA) were resuspended to a density measured as an absorbance of 1.0 at 600 nm in sterile ddH2 O. The reaction of the cells with each of the bactericidal test formulations analyzed was started by addition of 30 μl of cells to 970 μl of test formulation. The reaction mixture was incubated at 37° C for at least 1 minute and then centrifuged in a microfuge for 1 minute. The cell pellet was washed by resuspension in 1 ml of neutralization buffer. (The neutralization buffer: 50 mM Tris-HCl, pH 7.0, 5 mM MgSO4, 20 mM CaCl2, 0.1 M NaCl and 0.1% gelatin was prepared by first making Tris buffer and adjusting the pH. The salts and gelatin were then added and the solution stirred with heat until the solution was clear. The solution was then autoclaved for 20 min. The neutralization buffer was used without dilution.) The cells were centrifuged in a microfuge for 1 minute and resuspended in 1 ml of neutralization buffer. The viable count was determined by spreading 100 μl of bacterial suspension and serial dilutions thereof in neutralization buffer on nutrient agar and scoring surviving colonies after 24 h at 37° C. Percent survival relative to untreated controls was calculated from the scored values.

Structure (SMILES): CC(=O)O [Acetate]
- % survival at 1 min (Escherichia coli; 0.1% w/v acetate pH 3.5, initial 2 × 10^7 cfu/ml): 55%
- % survival at 1 min (Escherichia coli; 0.3% w/v acetate pH 3.5, initial 2 × 10^7 cfu/ml): 80%
- % survival at 1 min (Escherichia coli; 1.0% w/v acetate pH 3.5, initial 2 × 10^7 cfu/ml): 90%
- % survival at 1 min (Escherichia coli; 3.0% w/v acetate pH 3.5, initial 2 × 10^7 cfu/ml): 10.1%

Structure (SMILES): O=C(O)CC(O)(CC(=O)O)C(=O)O [Citrate]
- % survival at 1 min (Escherichia coli; 0.1% w/v citrate pH 3.5, initial 5 × 10^7 cfu/ml): 100%
- % survival at 1 min (Escherichia coli; 0.3% w/v citrate pH 3.5, initial 5 × 10^7 cfu/ml): 56.3%
- % survival at 1 min (Escherichia coli; 1.0% w/v citrate pH 3.5, initial 5 × 10^7 cfu/ml): 72.9%
- % survival at 1 min (Escherichia coli; 3.0% w/v citrate pH 3.5, initial 5 × 10^7 cfu/ml): 100%
- survival of E. coli on exposure to the agent by itself (Escherichia coli; agent by itself): unaffected
- % survival at 5 min (Helicobacter pylori; strain ATCC43504, 0.1% citrate adjusted to pH 2.5, nisin 100 μg/ml where present, 37° C.): 0.14%
- % survival at 5 min (Helicobacter pylori; strain ATCC43504, 0.1% citrate adjusted to pH 3.0, nisin 100 μg/ml where present, 37° C.): < 0.004%
- % survival at 5 min (Helicobacter pylori; strain ATCC43504, 0.1% citrate adjusted to pH 3.5, nisin 100 μg/ml where present, 37° C.): < 0.004%
- % survival at 5 min (Helicobacter pylori; strain ATCC43504, 0.1% citrate adjusted to pH 4.0, nisin 100 μg/ml where present, 37° C.): 0.36%
- % survival at 5 min (Helicobacter pylori; strain ATCC43504, 0.1% citrate adjusted to pH 5.0, nisin 100 μg/ml where present, 37° C.): 68.5%
- % survival at 5 min (Helicobacter pylori; strain ATCC43504, 0.3% citrate adjusted to pH 2.5, nisin 100 μg/ml where present, 37° C.): 0.027%
- % survival at 5 min (Helicobacter pylori; strain ATCC43504, 0.3% citrate adjusted to pH 3.0, nisin 100 μg/ml where present, 37° C.): < 0.027%
- % survival at 5 min (Helicobacter pylori; strain ATCC43504, 0.3% citrate adjusted to pH 3.5, nisin 100 μg/ml where present, 37° C.): 29.7%
- % survival at 5 min (Helicobacter pylori; strain ATCC43504, 0.3% citrate adjusted to pH 4.0, nisin 100 μg/ml where present, 37° C.): 17.6%
- % survival at 5 min (Helicobacter pylori; strain ATCC43504, 0.3% citrate adjusted to pH 5.0, nisin 100 μg/ml where present, 37° C.): 100%
- % survival at 5 min (Helicobacter pylori; strain ATCC43504, pH 5.0, citrate 0.1% w/v, nisin 100 μg/ml where present, first of two experiments (initial 1.40 × 10^5 cfu/ml)): 83.6%
- % survival at 5 min (Helicobacter pylori; strain ATCC43504, pH 5.0, citrate 0.1% w/v, nisin 100 μg/ml where present, second of two experiments (initial 3.26 × 10^5 cfu/ml)): 25.8%
- % survival at 5 min (Helicobacter pylori; strain ATCC43504, pH 5.0, citrate 0.3% w/v, nisin 100 μg/ml where present, first of two experiments (initial 1.40 × 10^5 cfu/ml)): 42.9%
- % survival at 5 min (Helicobacter pylori; strain ATCC43504, pH 5.0, citrate 0.3% w/v, nisin 100 μg/ml where present, second of two experiments (initial 3.26 × 10^5 cfu/ml)): 4.39%
- % survival at 5 min (Helicobacter pylori; strain ATCC43504, pH 5.0, citrate 1.0% w/v, nisin 100 μg/ml where present, first of two experiments (initial 1.40 × 10^5 cfu/ml)): 22.1%
- % survival at 5 min (Helicobacter pylori; strain ATCC43504, pH 5.0, citrate 1.0% w/v, nisin 100 μg/ml where present, second of two experiments (initial 3.26 × 10^5 cfu/ml)): 50.9%
- % survival at 5 min (Helicobacter pylori; strain ATCC43504, pH 7.0, citrate 0.1% w/v, nisin 100 μg/ml where present, initial 9.62 × 10^4 cfu/ml): 17.7%
- % survival at 5 min (Helicobacter pylori; strain ATCC43504, pH 7.0, citrate 0.3% w/v, nisin 100 μg/ml where present, initial 9.62 × 10^4 cfu/ml): 8.94%
- % survival at 5 min (Helicobacter pylori; strain ATCC43504, pH 7.0, citrate 1.0% w/v, nisin 100 μg/ml where present, initial 9.62 × 10^4 cfu/ml): 0.82%
- % survival at 5 min (Helicobacter pylori; strain ATCC43579, 0.1% citrate adjusted to pH 2.5, nisin 100 μg/ml where present, 37° C.): < 5.0 × 10^-4%
- % survival at 5 min (Helicobacter pylori; strain ATCC43579, 0.1% citrate adjusted to pH 3.0, nisin 100 μg/ml where present, 37° C.): 1.1 × 10^-3%
- % survival at 5 min (Helicobacter pylori; strain ATCC43579, 0.1% citrate adjusted to pH 3.5, nisin 100 μg/ml where present, 37° C.): 0.18%
- % survival at 5 min (Helicobacter pylori; strain ATCC43579, 0.1% citrate adjusted to pH 4.0, nisin 100 μg/ml where present, 37° C.): 9.56%
- % survival at 5 min (Helicobacter pylori; strain ATCC43579, 0.1% citrate adjusted to pH 5.0, nisin 100 μg/ml where present, 37° C.): 97.2%
- % survival at 5 min (Helicobacter pylori; strain ATCC43579, pH 5.0, 0.1% citrate, nisin 0, 37° C., initial 3.19 × 10^7 cfu/ml): 86.2%
- % survival at 5 min (Helicobacter pylori; strain ATCC43579, pH 5.0, citrate 0.1% w/v, nisin 100 μg/ml where present, initial 1.04 × 10^4 cfu/ml): 100%
- % survival at 5 min (Helicobacter pylori; strain ATCC43579, pH 5.0, citrate 0.3% w/v, nisin 100 μg/ml where present, initial 1.04 × 10^4 cfu/ml): 100%
- % survival at 5 min (Helicobacter pylori; strain ATCC43579, pH 5.0, citrate 1.0% w/v, nisin 100 μg/ml where present, initial 1.04 × 10^4 cfu/ml): 100%
- % survival at 5 min (Helicobacter pylori; strain ATCC43579, pH 7.0, citrate 0.1% w/v, nisin 100 μg/ml where present): 12.1%
- % survival at 5 min (Helicobacter pylori; strain ATCC43579, pH 7.0, citrate 0.3% w/v, nisin 100 μg/ml where present): 0.26%
- % survival at 5 min (Helicobacter pylori; strain ATCC43579, pH 7.0, citrate 1.0% w/v, nisin 100 μg/ml where present): 0.02%

Structure (SMILES): CC(O)C(=O)O (stereo not drawn) [Lactate, lactate]
- % survival at 1 min (Escherichia coli; 0.1% w/v lactate pH 3.5, initial 5 × 10^7 cfu/ml): 22.2%
- % survival at 1 min (Escherichia coli; 0.3% w/v lactate pH 3.5, initial 5 × 10^7 cfu/ml): 46.7%
- % survival at 1 min (Escherichia coli; 1.0% w/v lactate pH 3.5, initial 5 × 10^7 cfu/ml): 35.6%
- % survival at 1 min (Escherichia coli; 3.0% w/v lactate pH 3.5, initial 5 × 10^7 cfu/ml): 4.2%

Structure (SMILES): O=C(O)CCC(=O)O [Succinate, succinate]
- % survival at 1 min (Escherichia coli; 0.1% w/v succinate pH 3.5, initial 3.4 × 10^6 cfu/ml): 85.5%
- % survival at 1 min (Escherichia coli; 0.3% w/v succinate pH 3.5, initial 3.4 × 10^6 cfu/ml): 29.9%
- % survival at 1 min (Escherichia coli; 1.0% w/v succinate pH 3.5, initial 3.4 × 10^6 cfu/ml): 36.7%
- % survival at 1 min (Escherichia coli; 3.0% w/v succinate pH 3.5, initial 3.4 × 10^6 cfu/ml): 13.9%
